Assay results as given in patent publication US20220265629A1, “TREATMENT OF SYSTOLIC DYSFUNCTION AND HEART FAILURE WITH REDUCED EJECTION FRACTION WITH THE COMPOUND (R)-4-(1-((3-(DIFLUOROMETHYL)-1-METHYL-1H-PYRAZOL-4-YL)SULFONYL)-1-FLUOROETHYL)-N-(ISOXAZOL-3-YL)PIPERIDINE-1-CARBOXAMIDE” (MyoKardia, Inc., priority 2019, published 2022).
Read-outs that look alike come from different tables or passages of the source.

Assay: Food effect cross-over study, 200 mg (25 mg tablets), healthy volunteers: plasma pharmacokinetics
Format: in vivo, human
Details: for Plasma concentration, Geometric Mean / Plasma concentration, Mean / Plasma concentration, Median: Predose; for concentration at 1 h / concentration at 2 h / concentration at 3 h / concentration at 4 h / concentration at 5 h / concentration at 6 h / concentration at 9 h / concentration at 12 h / concentration at 18 h / concentration at 24 h / concentration at 36 h: human, plasma, oral; for concentration at 1 h: 1 hour postdose; for concentration at 2 h: 2 hours postdose; for concentration at 3 h: 3 hours postdose; for concentration at 4 h: 4 hours postdose; for concentration at 5 h: 5 hours postdose; for concentration at 6 h: 6 hours postdose; for concentration at 9 h: 9 hours postdose; for concentration at 12 h: 12 hours postdose; for concentration at 18 h: 18 hours postdose; for concentration at 24 h: 24 hours postdose; for concentration at 36 h: 36 hours postdose
Text: This example describes a clinical study for establishing, in healthy volunteers, the effect of a high fat, high caloric meal on the PK profile of Compound I, as compared to administration of the drug in the fasted state. The study also was intended to determine the safety and tolerability after a single oral dose of Compound I in the fed and fasted state in healthy volunteers. The measurements of PK, PD, and other clinical parameters were done as described in Example 1 above.
This study was an open-label, randomized, two-period cross-over study in healthy volunteers aged 18-55 years. Subjects were screened up to 28 days before the first treatment period. Subjects were admitted to the clinical site on Day −1 (the day before dosing) of Period 1. Approximately half of the subjects randomly received a single dose of Compound I on Day 1 of the first treatment period after the ingestion of a high fat, high caloric breakfast, and the remainder were closed in the fasted state. Any subject with a preclose resting HR≥95 beats per minute (bpm) was considered ineligible and was not treated. Any subjects with an acute gastrointestinal disorder which could impact drug/food absorption (e.g., vomiting, diarrhea) were rescheduled. Subjects were confined to the clinic until Day 4, and discharged after the 72-hour postclose PK and laboratory samples and vital signs were obtained. After a washout between dosing from 7 to 10 days (or, after consultation with the Investigator, up to 21 days after initial dosing if the subject was unable to attend within the 7 to 10-day window), the subject was admitted for Period 2. The sequence of fed/fasted versus fasted/fed periods was randomized. Subjects returned after the second treatment period for a safety follow-up visit on Day 7 (±1 day).
In both treatment periods, Compound I was administered with 240 mL of water. In the fasted state, the subjects fasted for 10 hours before and for 4 hours after the administration of Compound I. Water could have been ingested up to 1 hour before and after 1 hour post dosing. In the fed state, the subjects fasted for 10 hours before and for 4 hours after the ingestion of the meal, but could have ingested water up to 1 hour before and 1 hour after dosing. In the fed state, the subjects started ingesting the high fat, high caloric meal within 30 minutes prior to Compound I administration and finished the meal within 30 minutes. The meal contained approximately 800 to 1000 calories with about 50% of the calories from fat. The meal consisted of approximately 150 calories from protein, 250 calories from carbohydrate, and 500-600 calories from fat. An example of the meal was a breakfast consisting of two eggs fried in butter, two strips of bacon, two slices of buttered toast, 4 ounces of hash brown potatoes, and 8 ounces of whole milk.
Each subject received two oral doses of 200 mg of Compound I formulated as 25 mg tablets (8 tablets) in a randomized, cross-over fashion, once in the fasted state and the other time after the ingestion of a high fat, high caloric breakfast. There was a washout of between 7 and 21 days between the administrations of the two closes. The Compound I drug substance was a crystalline, free-base, synthetic molecule with a molecular weight of 435.4.
Plasma drug concentrations were measured as described in Example 1 above. Blood samples to measure Compound I plasma concentration were collected at various time points, including on Day 1 preclose (1 hour prior to dosing) and at 1 (±5 min), 2 (±5 min), 3 (±5 min), 4 (+10 min), 5 (+10 min), 6 (+10 min), 9 (+20 min), 12 (+20 min), 18 (+30 min), 24 (+30 min), 36 (+30 min), 48 (+30 min), and 72 (+30 min) hours postclose on both treatment periods.
To assess the effect of food on the PK of Compound I, the two one-sided t-test procedure was used to construct 90% CI around the geometric mean ratios (fed/fasted) of plasma AUCinf, AUClast, and Cmax. […]

[1] = Fasted, read-out: Plasma concentration, Geometric Mean
[2] = Fasted, read-out: Plasma concentration, Mean
[3] = Fasted, read-out: Plasma concentration, Median
[4] = Fed, read-out: Plasma concentration, Geometric Mean
[5] = Fed, read-out: Plasma concentration, Mean
[6] = Fed, read-out: Plasma concentration, Median

Compound: Cn1cc(S(=O)(=O)[C@@](C)(F)C2CCN(C(=O)Nc3ccon3)CC2)c(C(F)F)n1 [Compound I, (R)-4-(1-((3-(difluoromethyl)-1-methyl-1H-pyrazol-4-yl)sulfonyl)-1-fluoroethyl)-N-(isoxazol-3-yl)piperidine-1-carboxamide]
- exposure (Cmax) higher in the fed state versus the fasted state: ~60%
- AUCinf, Geometric Mean Ratio - Fed/Fasted (N = 11): 154.28 % of Reference
- AUClast, Geometric Mean Ratio - Fed/Fasted (N = 11): 154.02 % of Reference
- Cmax, Geometric Mean Ratio - Fed/Fasted (N = 11): 158.11 % of Reference
- Plasma concentration, Geometric Mean (Fasted): 0 µg/mL
- Plasma concentration, Mean (Fasted): 0.000 ng/mL
- Plasma concentration, Median (Fasted): 0 µg/mL
- Plasma concentration, Geometric Mean (Fed): 0 µg/mL
- Plasma concentration, Mean (Fed): 0.092 ng/mL
- Plasma concentration, Median (Fed): 0 µg/mL
- Tmax, Median (range) (fasted state): 5 h
- Tmax, Median (range) (fed state): 5.5 h
- concentration at 1 h [1]: 1180 ng/mL
- concentration at 1 h [2]: 1360 ng/mL
- concentration at 1 h [3]: 1600 ng/mL
- concentration at 1 h [4]: 916 ng/mL
- concentration at 1 h [5]: 1320 ng/mL
- concentration at 1 h [6]: 828 ng/mL
- concentration at 2 h [1]: 1780 ng/mL
- concentration at 2 h [2]: 1830 ng/mL
- concentration at 2 h [3]: 1820 ng/mL
- concentration at 2 h [4]: 1470 ng/mL
- concentration at 2 h [5]: 1920 ng/mL
- concentration at 2 h [6]: 1160 ng/mL
- concentration at 3 h [1]: 2090 ng/mL
- concentration at 3 h [2]: 2120 ng/mL
- concentration at 3 h [3]: 2180 ng/mL
- concentration at 3 h [4]: 2000 ng/mL
- concentration at 3 h [5]: 2340 ng/mL
- concentration at 3 h [6]: 2340 ng/mL
- concentration at 4 h [1]: 2190 ng/mL
- concentration at 4 h [2]: 2220 ng/mL
- concentration at 4 h [3]: 2280 ng/mL
- concentration at 4 h [4]: 2610 ng/mL
- concentration at 4 h [5]: 2810 ng/mL
- concentration at 4 h [6]: 3030 ng/mL
- concentration at 5 h [1]: 2270 ng/mL
- concentration at 5 h [2]: 2310 ng/mL
- concentration at 5 h [3]: 2400 ng/mL
- concentration at 5 h [4]: 3040 ng/mL
- concentration at 5 h [5]: 3150 ng/mL
- concentration at 5 h [6]: 3340 ng/mL
- concentration at 6 h [1]: 2170 ng/mL
- concentration at 6 h [2]: 2220 ng/mL
- concentration at 6 h [3]: 2320 ng/mL
- concentration at 6 h [4]: 3140 ng/mL
- concentration at 6 h [5]: 3200 ng/mL
- concentration at 6 h [6]: 3320 ng/mL
- concentration at 9 h [1]: 1970 ng/mL
- concentration at 9 h [2]: 2000 ng/mL
- concentration at 9 h [3]: 2040 ng/mL
- concentration at 9 h [4]: 3050 ng/mL
- concentration at 9 h [5]: 3080 ng/mL
- concentration at 9 h [6]: 3220 ng/mL
- concentration at 12 h [1]: 1720 ng/mL
- concentration at 12 h [2]: 1740 ng/mL
- concentration at 12 h [3]: 1800 ng/mL
- concentration at 12 h [4]: 2780 ng/mL
- concentration at 12 h [5]: 2840 ng/mL
- concentration at 12 h [6]: 2720 ng/mL
- concentration at 18 h [1]: 1290 ng/mL
- concentration at 18 h [2]: 1320 ng/mL
- concentration at 18 h [3]: 1360 ng/mL
- concentration at 18 h [4]: 2030 ng/mL
- concentration at 18 h [5]: 2080 ng/mL
- concentration at 18 h [6]: 2060 ng/mL
- concentration at 24 h [1]: 1070 ng/mL
- concentration at 24 h [2]: 1100 ng/mL
- concentration at 24 h [3]: 1170 ng/mL
- concentration at 24 h [4]: 1660 ng/mL
- concentration at 24 h [5]: 1720 ng/mL
- concentration at 24 h [6]: 1670 ng/mL
- concentration at 36 h [1]: 546 ng/mL
- concentration at 36 h [2]: 578 ng/mL
- concentration at 36 h [3]: 596 ng/mL
